pEC50: −log10 of the molar value.
Columns and labels:
[1] = target: T1, FAK (Homo sapiens, UniProt Q05397); assay: FAK-HiBiT Degradation Assay; format: cell-based; conditions: for DC50: JHH-4-FAK-HiBiT clone d01 cells, two hours incubation, 10-point dose response, 3-fold dilution starting at 1 μM, Nano-Glo HiBiT luminescence, read-out: FAK HiBiT EC50; for FAK HiBiT Ymin: lower limit of the four parameter fit (value A), Ymax derived using DMSO control, JHH-4-FAK-HiBiT cells, two hours
T1 construct: homozygous knock-in of a HiBiT tag (Promega Corporation, Madison, WI) to the C-terminus of the FAK gene in its natural genomic locus; endogenous in cells; host or cells: JHH-4-FAK-HiBiT clone d01 (CRISPR-Cas9 knock-in at the endogenous locus)
Text: To generate JHH-4-FAK-HiBiT cells for the FAK degradation assay, JHH-4 cells (Japanese Collection of Research Biosources Cell Bank, Japan) were transfected with ribonucleoprotein reagents to introduce, by CRISPR-Cas9 editing, the homozygous knock-in of a HiBiT tag (Promega Corporation, Madison, WI) to the C-terminus of the FAK gene in its natural genomic locus. Clonal cell populations were established by expanding single cells after CRISPR-Cas9 editing, with a clonal cell line named JHH-4-FAK-HiBiT clone d01 confirmed by next generation DNA sequencing to contain the expected HiBiT edited FAK gene and was selected for FAK degradation screening. Cells were selected and maintained in complete DMEM media (DMEM, 10% Heat Inactivated FBS, and Non-Essential Amino Acids at 37° C. and 5% CO2). Cells were passaged every 3-4 days by reseeding 0.5×10^6 cells in a T75 flask.
Cells were dispensed into 384-well white plates (Corning #3570, NY) that were pre-spotted with compounds using an acoustic dispenser (Echo acoustic transfer system, Beckman Coulter Life Sciences, Carlsbad, CA) as a 10-point dose response curve with a 3-fold dilution starting at 1 μM and including a DMSO control. Twenty-five microliters of media containing 2000 JHH-4-FAK-HiBiT Clone d01 cells was dispensed per well. Assay plates were incubated at 37° C. with 5% CO2 for two hours. After incubation, 25 μL of Nano-Glo HiBiT Lytic Reagent Working Solution (Promega Corporation, Madison, WI) was added to each well and incubated at room temperature for 10 minutes protected from light. After 10 minutes, luminescence was read on a PHERAstar luminometer (BMG Labtech, Cary, NC).
To determine the half-maximal effective concentration (EC50) values for FAK-HiBIT degradation, a four parameter logistic model was used: (Sigmoidal Dose-Response Model)(FIT=(A+((B−A)/1+((C/x)^D)))) where C is the inflection point (EC50), D is the Hill slope, and A and B are the low and high limits of the fit respectively). The lower limit of the fit (value A) is referred to as Ymin. The maximum limit constraint, Ymax, was derived using DMSO control. The curves were processed and evaluated using Dotmatics Atlas (Insightful Science, LLC, Boston, MA).

[2] = tested on: CAL-51 cells; assay: CAL-51 Cell Proliferation Assay; format: cell-based; conditions: for pEC50: Homo sapiens, 120 hours incubation, 10-point dose response, 4-fold dilutions starting at 10 μM, Cell-Titer-Glo, read-out: CAL-51 Prolif EC50; for CAL-51 Prolif Ymin: minimal percent of DMSO control observed in the concentrations tested (Ymin-obs), 120 hours
Text: CAL-51 cells were obtained from Bristol Myers Squibb internal cell banks (originally sourced from DSMZ-German Collection of Microorganisms and Cell Cultures GmbH, Germany) and cultured in RPMI complete media (RPMI-1640, 10% Fetal Bovine serum, 1× Antibiotic-Antimycotic, and 1× Non-Essential Amino Acids). Compounds were dispensed into 384-well plates using an acoustic dispenser (Beckman Coulter Life Sciences, Carlsbad, CA) in duplicate with 14 compounds on each plate. For each compound, a 10-point dose response was printed at 4-fold dilutions starting at 10 μM. The DMSO concentration was kept constant for a final assay concentration of 0.1% per well assuming 50 uL final media volume. Compound plates were sealed and frozen at −20° C. until use.
For each assay batch, compound plates were thawed and allowed to reach room temperature, and cells were seeded at 350 cells per well in 50 μl complete RPMI media. After 120 hours of incubation at 37° C. and 5% CO2, cells were lysed by addition of 25 μL of Cell-Titer-Glo Reagent (Promega Corporation, Madison, WI), as per manufacturer's instructions, protected from light, shaken for 20 minutes, and total luminescence read by a CLARIOstar Plus plate reader (BMG LabTech, Cary, NC). Total luminescence signal is linearly correlated with cell number remaining in the well.
Luminescence data was processed per plate by subtracting reagent-only “blank” well luminescence from all measured values and calculating a percent of DMSO control value for each treatment well. Then, to determine the half-maximal effective concentration (EC50) values for cell growth inhibition, a four parameter logistic model was fit to the data for each DMSO-normalized compound: Sigmoidal Dose-Response Model: (FIT=(A+((B−A)/1+((C/x)^D)))) where C is the inflection point (EC50), D is the Hill slope, and A and B are the low and high limits of the fit respectively. The lower limit of the fit (value A) is referred to as Ymin-calculated. The minimal percent of DMSO control that is observed in the concentrations tested for each compound is labeled as “Ymin-obs”, and was recorded and reported in the tables. Sigmoidal fit curves were processed and evaluated using Dotmatics Atlas (Insightful Science, LLC, Boston, MA).

T1 sequence (Q05397 whole entry): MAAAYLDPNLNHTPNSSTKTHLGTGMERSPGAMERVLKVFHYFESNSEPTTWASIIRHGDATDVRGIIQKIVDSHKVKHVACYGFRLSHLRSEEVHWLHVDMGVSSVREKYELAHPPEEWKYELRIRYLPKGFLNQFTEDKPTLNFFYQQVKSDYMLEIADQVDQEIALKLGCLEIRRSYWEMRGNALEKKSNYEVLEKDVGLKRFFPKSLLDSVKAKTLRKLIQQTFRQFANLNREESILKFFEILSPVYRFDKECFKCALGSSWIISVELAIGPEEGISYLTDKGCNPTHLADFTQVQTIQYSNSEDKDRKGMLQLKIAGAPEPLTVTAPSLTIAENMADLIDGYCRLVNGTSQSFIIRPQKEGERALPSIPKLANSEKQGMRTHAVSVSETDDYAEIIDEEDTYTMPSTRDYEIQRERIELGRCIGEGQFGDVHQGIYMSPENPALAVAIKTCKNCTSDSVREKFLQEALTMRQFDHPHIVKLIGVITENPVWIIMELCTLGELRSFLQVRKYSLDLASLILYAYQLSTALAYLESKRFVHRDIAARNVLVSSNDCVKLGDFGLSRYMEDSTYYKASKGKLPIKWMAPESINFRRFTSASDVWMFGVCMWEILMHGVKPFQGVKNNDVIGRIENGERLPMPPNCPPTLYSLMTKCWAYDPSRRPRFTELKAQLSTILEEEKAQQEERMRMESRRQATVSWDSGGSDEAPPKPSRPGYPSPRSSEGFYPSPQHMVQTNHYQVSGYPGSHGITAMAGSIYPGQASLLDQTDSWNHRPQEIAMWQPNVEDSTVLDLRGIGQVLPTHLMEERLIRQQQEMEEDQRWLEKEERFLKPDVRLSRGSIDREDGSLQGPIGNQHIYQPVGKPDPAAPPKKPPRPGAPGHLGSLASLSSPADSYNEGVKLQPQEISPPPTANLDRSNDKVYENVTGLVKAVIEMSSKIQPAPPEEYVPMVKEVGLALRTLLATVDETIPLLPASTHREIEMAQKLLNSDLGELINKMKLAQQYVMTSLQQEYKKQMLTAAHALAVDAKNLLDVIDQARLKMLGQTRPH

With `CC(C)Nc1nc2c(cnn2Cc2ccc3c(c2)CN([C@H]2CCC(=O)NC2=O)C3=O)c(-c2ncc(F)cc2Cl)c1F` (single isomer, unassigned) [Example 9] the DC50 [1] was 0.55 nM, the “FAK HiBiT Ymin” value [1] was 9.43 and the pEC50 [2] was 9.34. For the same compound, the “CAL-51 Prolif Ymin” value [2] was 22.89.

For `O=C1CC[C@H](N2Cc3c(ccc(Cn4ncc5c(-c6ncc(F)cc6Cl)cc(N6CC(F)C6)nc54)c3F)C2=O)C(=O)N1` (single isomer, unassigned) [Example 61], the DC50 [1] was 3.6 nM, the “FAK HiBiT Ymin” value [1] was 7.65 and the pEC50 [2] was 8.15. The “CAL-51 Prolif Ymin” value [2] was 35.56.

`O=C1CC[C@@H](N2Cc3cc(Cn4ncc5c(-c6ncc(C(F)(F)F)cc6Cl)c(F)c(N6CC(F)C6)nc54)ccc3C2=O)C(=O)N1` (single isomer, unassigned) [Example 78] was tested, and the DC50 [1] was 8.4 nM, the “FAK HiBiT Ymin” value [1] was 5.59 and the pEC50 [2] was 8.75. The “CAL-51 Prolif Ymin” value [2] was 24.33.

With `O=C1CC[C@@H](N2Cc3cc(Cn4ncc5c(-c6ncc(C(F)(F)F)cc6Cl)cc(N6CC(F)C6)nc54)ccc3C2=O)C(=O)N1` (single isomer, unassigned) [Example 87] the DC50 [1] was 13 nM, the “FAK HiBiT Ymin” value [1] was 5.32 and the pEC50 [2] was 8.66. The “CAL-51 Prolif Ymin” value [2] was 38.15.

For `O=C1CC[C@H](N2Cc3cc(Cn4ncc5c(-c6ncc(C7COC7)cc6Cl)cc(N6CC(F)C6)nc54)ccc3C2=O)C(=O)N1` (single isomer, unassigned) [Example 108], the DC50 [1] was 40.5 nM, the “FAK HiBiT Ymin” value [1] was 13.46 and the pEC50 [2] was 7.74. The “CAL-51 Prolif Ymin” value [2] was 28.68.

`O=C1CC[C@@H](N2Cc3c(ccc(Cn4ncc5c(-c6ncc(F)cc6Cl)cc(N6CC(F)C6)nc54)c3F)C2=O)C(=O)N1` (single isomer, unassigned) [Example 109] was tested, and the DC50 [1] was 42.1 nM, the “FAK HiBiT Ymin” value [1] was 11.09 and the pEC50 [2] was 7.99. The “CAL-51 Prolif Ymin” value [2] was 35.33.

With `O=C1CC[C@@H](N2Cc3cc(Cn4ncc5c(-c6ncc(C7COC7)cc6Cl)cc(N6CC(F)C6)nc54)ccc3C2=O)C(=O)N1` (single isomer, unassigned) [Example 127] the DC50 [1] was 213 nM, the “FAK HiBiT Ymin” value [1] was 42.87 and the pEC50 [2] was 8.05. For the same compound, the “CAL-51 Prolif Ymin” value [2] was 37.97.

In the case of `O=C1CC[C@H](N2Cc3cc(Cn4ncc5c(-c6ncc(C(F)(F)F)cc6Cl)cc(N6CCC(O)C6)nc54)ccc3C2=O)C(=O)N1` (stereo in doubt) [Example 106, (3S)-3-[5-({4-[3-chloro-5-(trifluoromethyl)pyridin-2-yl]-6-[(3R)-3-hydroxypyrrolidin-1-yl]-1H-pyrazolo[3,4-b]pyridin-1-yl}methyl)-1-oxo-2,3-dihydro-1H-isoindol-2-yl]piperidine-2,6-dione], the DC50 [1] was 37.9 nM, the “FAK HiBiT Ymin” value [1] was 17.24 and the pEC50 [2] was 7.26. For the same compound, the “CAL-51 Prolif Ymin” value [2] was 53.56.

`O=C1CC[C@H](N2Cc3cc(Cn4ncc5c(-c6ncc(C(F)(F)F)cc6Cl)c(F)c(N6CC(F)C6)nc54)ccc3C2=O)C(=O)N1` [Example 1, (3S)-3-[5-({4-[3-chloro-5-(trifluoromethyl)pyridin-2-yl]-5-fluoro-6-(3-fluoroazetidin-1-yl)-1H-pyrazolo[3,4-b]pyridin-1-yl}methyl)-1-oxo-2,3-dihydro-1H-isoindol-2-yl]piperidine-2,6-dione] was tested, and the DC50 [1] was 0.14 nM, the “FAK HiBiT Ymin” value [1] was 7.57 and the pEC50 [2] was 9.77. The “CAL-51 Prolif Ymin” value [2] was 27.59.

`O=C1CC[C@H](N2Cc3cc(Cn4ncc5c(-c6ncc(C(F)(F)F)cc6Cl)c(Cl)c(N6CC(F)C6)nc54)ccc3C2=O)C(=O)N1` [Example 2, (3S)-3-[5-({5-chloro-4-[3-chloro-5-(trifluoromethyl)pyridin-2-yl]-6-(3-fluoroazetidin-1-yl)-1H-pyrazolo[3,4-b]pyridin-1-yl}methyl)-1-oxo-2,3-dihydro-1H-isoindol-2-yl]piperidine-2,6-dione] was tested, and the DC50 [1] was 0.24 nM, the “FAK HiBiT Ymin” value [1] was 7.25 and the pEC50 [2] was 9.37. The “CAL-51 Prolif Ymin” value [2] was 14.10.

In the case of `O=C1CCC(N2Cc3cc(Cn4ncc5c(-c6ncc(C(F)(F)F)cc6Cl)c(F)c(N6CC(F)C6)nc54)ccc3C2=O)C(=O)N1` (centres unmarked) [Example 3, 3-[5-({4-[3-chloro-5-(trifluoromethyl)pyridin-2-yl]-5-fluoro-6-(3-fluoroazetidin-1-yl)-1H-pyrazolo[3,4-b]pyridin-1-yl}methyl)-1-oxo-2,3-dihydro-1H-isoindol-2-yl]piperidine-2,6-dione], the DC50 [1] was 0.29 nM, the “FAK HiBiT Ymin” value [1] was 8.97 and the pEC50 [2] was 8.85. For the same compound, the “CAL-51 Prolif Ymin” value [2] was 23.98.

For `CCOc1cnc(-c2c(Cl)c(N3CC(F)C3)nc3c2cnn3Cc2ccc3c(c2)CN([C@H]2CCC(=O)NC2=O)C3=O)c(C(F)(F)F)c1` [Example 4, (3S)-3-[5-({5-chloro-4-[5-ethoxy-3-(trifluoromethyl)pyridin-2-yl]-6-(3-fluoroazetidin-1-yl)-1H-pyrazolo[3,4-b]pyridin-1-yl}methyl)-1-oxo-2,3-dihydro-1H-isoindol-2-yl]piperidine-2,6-dione], the DC50 [1] was 0.42 nM, the “FAK HiBiT Ymin” value [1] was 7.37 and the pEC50 [2] was 9.28. For the same compound, the “CAL-51 Prolif Ymin” value [2] was 1.90.

With `CC(C)(O)c1ccc(Cl)c(-c2cc(N3CCC3)nc3c2cnn3Cc2ccc3c(c2)CN(C2CCC(=O)NC2=O)C3=O)c1` (centres unmarked) [Example 124, 3-(5-{[6-(azetidin-1-yl)-4-[2-chloro-5-(2-hydroxypropan-2-yl)phenyl]-1H-pyrazolo[3,4-b]pyridin-1-yl]methyl}-1-oxo-2,3-dihydro-1H-isoindol-2-yl)piperidine-2,6-dione] the DC50 [1] was 124 nM and the “FAK HiBiT Ymin” value [1] was 43.76.

`CC(C)Nc1cc(-c2ncc(C#N)cc2F)c2cnn(Cc3ccc4c(c3)CN(C3CCC(=O)NC3=O)C4=O)c2n1` (centres unmarked) [Example 137, 6-(1-{[2-(2,6-dioxopiperidin-3-yl)-1-oxo-2,3-dihydro-1H-isoindol-5-yl]methyl}-6-[(propan-2-yl)amino]-1H-pyrazolo[3,4-b]pyridin-4-yl)-5-fluoropyridine-3-carbonitrile] was tested, and the DC50 [1] was no less than 1000 nM and the “FAK HiBiT Ymin” value [1] was 81.91.

In the case of `Cc1ncccc1-c1cc(N2CC(F)C2)nc2c1cnn2Cc1ccc2c(c1)CN(C1CCC(=O)NC1=O)C2=O` (centres unmarked) [Example 139, 3-(5-{[6-(3-fluoroazetidin-1-yl)-4-(2-methylpyridin-3-yl)-1H-pyrazolo[3,4-b]pyridin-1-yl]methyl}-1-oxo-2,3-dihydro-1H-isoindol-2-yl)piperidine-2,6-dione], the DC50 [1] was no less than 1000 nM and the “FAK HiBiT Ymin” value [1] was 93.99.

`O=C1CC[C@H](N2Cc3cc(Cn4ncc5c(-c6ncc(Cl)cc6F)cc(N6CC[C@H](O)C6)nc54)ccc3C2=O)C(=O)N1` [Example 141, (3S)-3-(5-{[4-(5-chloro-3-fluoropyridin-2-yl)-6-[(3S)-3-hydroxypyrrolidin-1-yl]-1H-pyrazolo[3,4-b]pyridin-1-yl]methyl}-1-oxo-2,3-dihydro-1H-isoindol-2-yl)piperidine-2,6-dione] was tested, and the DC50 [1] was 9 nM and the “FAK HiBiT Ymin” value [1] was 53.

From US20260078119A1, “DEGRADER COMPOUNDS AND USES THEREOF” (Bristol-Myers Squibb Company, priority 2024, published 2026)
